Where only a bound is given, the exact number is not on record here.

As usually defined, the melting point is the temperature of the solid-liquid transition. Regarding `COc1ccc(COC(=O)[C@H]2CC[C@H](C(=O)O)CC2)cc1`, the melting point fell in the range of 87 to 89 °C. To `CCCCC(=O)NC(=O)C(c1ccccc1)c1ccccc1` belongs 83 °C. Next, `COC(=O)C1C(NC(C)=O)CC(=O)OC1C` (configuration not stated): 135 to 136 °C; `C[C@@H](N[C@@H](Cc1c[nH]cn1)C(=O)O)[C@H](NC(=O)[C@@H](N)CCCCN)C(=O)O`: 175 to 179 °C. In the case of `COc1cc2c(cc1OC)C(C)(CCC(=O)O)OCC2=O` (configuration not stated), the melting point was in the range of 172 to 173 °C. To `Cc1cc(-c2cc(C(F)F)n3ncc(-c4nc(-c5ccc(N)nc5)no4)c3n2)ccc1C(F)(F)F` belongs 231 °C.

For the molecule `CCC12CCC3c4ccc(OC)cc4CCC3C1CC=C2OC(C)=O` (configuration not stated), the melting point was in the range of 105 to 106 °C. Next, `CCOC(=O)N1CCN(c2ccc(-n3cc[nH]c3=O)cc2)CC1`: 196 °C. Next, `CCOC(=O)N1CCC(Nc2nc3ccccc3n2Cc2ccc(F)cc2)CC1`: 181 °C; `CCn1c(C(F)(F)F)cc(=O)n(-c2cc(C(=O)OC3CCCC3)c(Cl)cc2F)c1=O`: 90 to 91 °C; `CC(C)(CNC(=O)Cc1ccccc1)NCC(O)c1cc(Cl)c(NC(=O)C(C)(C)C)c(Cl)c1` (configuration not stated): 83 to 85 °C. Next, `O=C(NCCNS(=O)(=O)c1ccc(Oc2ccccc2)cc1)P(=O)(O)O`: 166 to 169 °C; `COc1cccc(NC(=O)c2ccc(F)c([N+](=O)[O-])c2)c1`: 145 to 146 °C; `Cc1cn(C)c(C)c1-c1ccnc(Nc2ccc(F)cc2)n1`: 124 to 128 °C. In the case of `COc1cccnc1CCCCNc1nc(=O)c(C(O)c2ccc(C)nc2)c[nH]1` (configuration not stated), the melting point was 82 °C. To `O=C(O)CCC(=O)N1CCN(c2cc3c(cc2F)c(=O)c(C(=O)O)c2sccn23)CC1` belongs 331 to 334 °C. To `CCN(CC)CCCCC1CCN(C(=O)N2c3ccccc3C(=O)Nc3cccnc32)CC1` belongs 126 to 127 °C. For `CC(CCNC1=Nc2cccc3cccc1c23)c1ccncc1` (configuration not stated), the melting point lay in the range of 220 to 221 °C. Next, `O=C(O)[C@H](Cc1c[nH]c2ccccc12)NS(=O)(=O)c1ccc2c(c1)Sc1ccccc1O2`: 120 to 130 °C. To `CNCc1cc(Oc2ccc3c(C(=O)Nc4cccc(C(F)(F)F)c4)cccc3c2)ncn1` belongs 141 to 143 °C; to `CNS(=O)(=O)c1cn(C)c2cc(Cl)c(F)cc2c1=O`, 235 to 236 °C. To `CN(Cc1cc(C(F)(F)F)cc(C(F)(F)F)c1)C(=O)c1c(-c2ccc(F)cc2)c2c(c(=O)n1C)CNCC2` belongs 178 to 180 °C. For `O=C1CCN(c2cc3c(cc2-c2ccc(F)cc2)NC(=O)CC(c2cccc(-n4ccnc4)c2)=N3)CC1`, the melting point was 204 °C. `CNC(=O)n1sc(-c2ccccc2)nc1=O`: the melting point turned out to be 210 °C.

In turn, `CCN1CC(=O)N(c2ccccc2C)C1=S` registered a melting point of 82 to 84 °C.

`CCN(CC)c1ccc(C2(N(c3ccc(N(C)C)cc3)c3ccc(N(C)C)cc3)OC(=O)c3ccccc32)c(C)c1` (configuration not stated) displayed a melting point of 67 to 83 °C. The molecule `CCCNNC(=O)c1cnc(N(CC)Cc2cc(Br)ccc2OCc2ccccc2)s1` displayed a melting point of 163 °C. Molecule `CCC(CC)c1ccc(Cl)c2nc(Nc3c(C)cc(Br)cc3OC)n(C)c12` showed a melting point of 218 to 220 °C. In turn, `CCOC(=O)c1c(CN=[N+]=[N-])cccc1S(=O)(=O)NC(=O)Nc1nc(OC)cc(OC)n1` had a melting point of 158 to 160 °C. To `CCCc1c(COc2ccc(-c3nnn[nH]3)cc2)ccc(C(C)=O)c1O` belongs 203 to 205 °C; to `NS(=O)(=O)c1cc2c(s1)S(=O)(=O)N(CCc1ccccc1)C[C@H]2O`, 117 to 119 °C. For `CN1CCN(c2ccc(-c3cnc4[nH]cc(C(=O)N[C@@H](C(=O)N5CC(C#N)C5)C5CC5)c4n3)cc2)CC1`, the melting point was in the range of 178 to 185 °C. To `CCCCCCCCCCCCNC(=O)C1CCC(=O)N1` (configuration not stated) belongs 114 to 116 °C; to `COc1ccc2c(c1)CCC1(C)C2=CCC2(C)C(O)CCC12` (configuration not stated), 168 °C; to `CCc1sc2nc(=NS(=O)(=O)c3ccc(C)cc3)sn2c1-c1ccc2c(c1)CCCC2`, 151 to 152 °C. In the case of `Cc1c(OCc2ccc(F)cc2F)ccn(Cc2cccc(F)c2)c1=O`, the melting point was 127 to 129 °C.

In turn, `Cc1cccc(-c2[nH]c(C(C)C)nc2-c2cccc(-c3cccc(S(C)(=O)=O)c3)c2)n1` registered a melting point of 97 to 100 °C. To `CC(C)N1C(=O)CCCc2cc(Nc3ncc(Cl)c(NC4C5C=CC(C5)C4C(N)=O)n3)ccc21` (configuration not stated) belongs 260 °C; to `CNNC(=O)c1ccc(C(=O)NNC)cc1`, 240 to 241 °C; to `N#CCCNC(=S)C1=CC(CF)(CF)Oc2cc(Cl)c(Cl)cc21`, 154 to 155 °C. `CCOC(=O)C(=O)N(O)Cc1ccc2c(c1)OCc1ccccc1C2=O` registered a melting point of 52 to 62 °C.

For `COc1ccc2cc(C3=CC4CCC(C3)N4)ccc2c1` (configuration not stated), the melting point was found to be 138 °C. To `COc1ccc(NC(=O)c2ccc(F)c(F)c2)cc1NCc1cccc(O)c1` belongs 174 to 176 °C.

The molecule `CCC1SC(=O)N(Cc2ccc(NC(=O)C(F)(F)F)cc2)N=C1c1ccc(OC)c(OC)c1` (configuration not stated) yielded a melting point of 124 °C.

Consider `CC(=O)OC1CSC(Oc2ccc(-c3cncnc3)nc2Cl)C(OC(C)=O)C1OC(C)=O` (configuration not stated), for which the melting point came out at 168 °C. Molecule `CC(=O)OC(C)OC1=C(C(=O)Nc2cccc(C)n2)N(C)S(=O)(=O)c2ccccc21` (configuration not stated) registered a melting point of 190 to 191 °C. To `CC(=O)Nc1cc(N)c(F)cc1Cl` belongs 176 to 178 °C; to `Cc1cc(NC(=O)c2cnccn2)nc(C)c1Br`, 206 °C; to `CCOC(=O)C1=CCCCC1S(=O)(=O)Nn1c(Br)ccc1Br` (configuration not stated), 123 to 124 °C. To `COC(=O)c1c(OC)c(OC)c2oc(C)cc(=O)c2c1OC` belongs 125 °C.

Consider `CCOCCn1cc(C2CCN(CCOc3cc(OC)ccc3C(=O)O)CC2)c2cccnc21`, for which the melting point fell in the range of 106 to 108 °C.

In the case of `COc1cc([N+](=O)[O-])c2nccc(C)c2c1Oc1ccc(F)cc1`, the melting point fell in the range of 184 to 186 °C. In turn, `O=c1c2nc(Br)n(Cc3ccccc3)c2ncn1Cc1ccccc1` registered a melting point of 161 to 162 °C. The molecule `CC(C)n1nc(-c2c(-c3ccccc3)nc(N)nc2N(C)Cc2ccccc2)ccc1=O` displayed a melting point of 167 to 168 °C.

As for `Nc1cccc(OCCN2CCCCC2)c1`, the melting point amounted to 115 °C. The molecule `Cc1cc(C)c2c(O)c([N+](=O)[O-])c(=O)oc2c1` gave a melting point of 186 to 187 °C. In the case of `N#Cc1cnn2c(C(F)(F)F)cc(-c3cccc(F)c3)nc12`, the melting point came to 199 °C. `COc1ccc(C(=O)Nc2ccc3ccc(-c4ccccc4)nc3n2)cc1` showed a melting point of 187 °C. Next, `CCOCc1nc2c(N)nc3cc(OCc4ccccc4)ccc3c2n1CC1COC(C)(C)O1` (configuration not stated): 186 to 187 °C; `COCC(C)(C)C(=O)O[C@H]1C[C@H](O)C=C2C=C[C@H](C)[C@H](CC[C@@H]3C[C@@H](O)CC(=O)O3)[C@H]21`: 140 to 142 °C.

In turn, `O=C(CCCOc1ccc2nc3[nH]c(=O)[nH]c3cc2c1)NC1CCCCCC1` registered a melting point of 314 to 316 °C. To `CCc1nc2c(C(N)=O)cccc2n1-c1ccc(CCNC(=O)NS(=O)(=O)c2ccc(C)cc2)cc1` belongs 208 to 214 °C; to `CCCn1c(CCOC)nc2c(N)nc3cc(OCCCS(C)(=O)=O)ccc3c21`, 170 to 171 °C.

For `NC(CSCC(O)CN1CCOCC1)C(=O)O` (configuration not stated), the melting point worked out at 200 °C.

As to `O=C(NC1CN(C(C(=O)O)c2ccccc2)C1=O)C(=NO)c1ccccc1` (configuration not stated), the melting point fell in the range of 145 to 149 °C.

In the case of `COC1OCC[C@@H]1NC(=O)[C@H](Cc1ccccc1)NC(=O)OCc1ccccc1` (some centres not stated), the melting point was in the range of 140 to 142 °C. Next, `Cc1cccn2c3c(nc12)-c1ccccc1C(=O)C3=O`: more than 260 °C; `O=c1cc2c(n[nH]1)-c1ccccc1CC2`: 236 °C. Next, `C#C[C@H](Cc1cccc(F)c1)n1nnc2cc3c(cc2c1=O)OCN(C1CC1)C3=O`: 168 to 180 °C; `COC(=O)Nc1cccc(CC(=O)NC(C)(C)C)c1`: 123 to 124 °C. To `COc1cccc(CC(=O)O)c1OCCCc1cn(-c2ccc(F)cn2)nc1C(C)C` belongs 125 to 126 °C; to `Clc1ccc(C2Nc3ccccc3S2)cc1` (configuration not stated), 85 to 87 °C; to `CCOc1cc(Oc2ccc(S(C)(=O)=O)nc2)cc2cc(C3=NCC(CCO)S3)[nH]c12` (configuration not stated), 147 to 148 °C.

In turn, `OC1(c2cccc(-c3ccccc3)c2)CN2CCC1CC2` (configuration not stated) had a melting point of 165 to 166 °C. Next, `NC(=O)c1cn([C@@H](CO)CCn2ccc3ccccc32)cn1`: 127 to 130 °C; `Cc1cc(Oc2ccc(NC(=O)N3CCc4ccccc4CC3)cn2)ccc1Cl`: 171 to 173 °C; `CCCc1c(C(=O)CCl)c2ccc(C(=O)OC)cc2n1Cc1ccccc1Cl`: 143 to 145 °C. Next, `Cc1ccc2c3c(ccc2n1)OCC(CNCC1CCc2[nH]c4cc(Cl)c(F)cc4c2C1)O3` (configuration not stated): 243 to 244 °C. To `N#CC1(N2CCC(O)CC2)CCSCC1` belongs 79 to 81 °C. `C1CNCCNCCNCNCCNC1` came in with a melting point of 49 to 51 °C. Next, `CCN(CC)C(=S)Oc1ccc2c(c1)Oc1ccccc1S2`: 121 to 123 °C; `CC(C)NC(=S)NC(=O)c1ccc(C#N)cc1`: 156 to 157 °C. Next, `CC(=Cc1cccc([N+](=O)[O-])c1)C(=O)Oc1ccc(Cl)cc1`: 102 °C; `CC(=O)NCc1nc2c(N)nc3ccccc3c2n1CC(C)C`: 214 to 218 °C. To `COc1cc(C(=O)N[C@H]2CCNC2)ccc1Nc1ncc2c(n1)N(C1CCCCC1)CC(F)(F)C(=O)N2C` belongs 195 to 198 °C; to `COc1ccccc1C1CC(=O)Oc2ccc(Cl)cc21` (configuration not stated), 172 to 173 °C. In the case of `Clc1nccc2scc(Br)c12`, the melting point lay within 153 to 155 °C.

Source of the values: a melting point compilation (Tetko et al.; mined from patent text by program, amines drawn as free bases though some values may be those of a salt).
